In US20050250677A1, “Glycopeptide antibiotic derivatives” (priority 2002, published 2005):
Like-named read-outs stand apart in the source and are kept apart here.

Key:
HIV-1 (IIIB) = assay: Inhibition of HIV-1 (IIIB)-induced cytopathicity (giant cell formation) in CEM cells; type: cell-based; details: read-out: EC50 HIV-1 (concentration required to inhibit HIV-induced giant cell formation by 50%); HIV-1, CEM cell cultures
Protocol: (§1) A variety of glycopeptide antibiotic derivatives of vancomycin, eremomycin and teicoplanin including their aglycon derivatives were evaluated for their inhibitory activity against HIV-1 (IIIB) and HIV-2(ROD) in CEM cell cultures.

HIV-2(ROD) = assay: Inhibition of HIV-2 (ROD)-induced cytopathicity (giant cell formation) in CEM cells; type: cell-based; details: read-out: EC50 HIV-2 (concentration required to inhibit HIV-induced giant cell formation by 50%); HIV-2, CEM cell cultures
Protocol: as §1

human lymphocyte CEM = assay: Cytostatic activity assay, CEM cells; type: cell-based; details: read-out: IC50 CEM (compound concentration required to inhibit tumor cell proliferation by 50%)
FCV = assay: Feline corona virus assay in Feline Crandel kidney cells (MTS); type: cell-based
Protocol: Feline Crandel kidney cells were seeded in 96-well microtiter plates at 24,000 cells/well. Then, 24 hrs later, an appropriate inoculum of FCV is added together with 5-fold dilutions of the test compounds. After 4 days, a MTS/PMS solution was added to each well. Following a 90 min incubation period at 37° C., the optical density of the wells was read at 498 nm in a microplate reader.

FCK cells = details: read-out: CC50 FCK; FCK cells
VZV (wild-type strains) = assay: Anti-VZV assay (wild-type strains): virus-induced cytopathicity in HEL cell cultures; type: cell-based, varicella-zoster virus
murine leukemia L1210 = assay: Cytostatic activity assay, L1210 cells; type: cell-based; details: read-out: IC50 L1210 (compound concentration required to inhibit tumor cell proliferation by 50%)
HEL cells [1] = tested on: HEL cells
[2] = tested on: human lymphocyte Molt4/clone 8; assay: Cytostatic activity assay, Molt4/clone 8 cells; type: cell-based; details: read-out: IC50 Molt4/C8 (compound concentration required to inhibit tumor cell proliferation by 50%)
HEL cells [3] = details: read-out: CC50 (HEL), HEL cells
CMV = assay: Anti-CMV assay: virus-induced cytopathicity in HEL cell cultures
[4] = VZV strain OKA, HEL cell cultures, read-out: EC50 VZV (OKA)
[5] = VZV strain YS, HEL cell cultures, read-out: EC50 VZV (YS)
[6] = read-out: EC50 CMV AD-169, CMV strain AD-169, HEL cell cultures
[7] = read-out: EC50 CMV Davis, CMV strain Davis, HEL cell cultures

Row | SMILES | EC50 (HIV-1 (IIIB)) [µM] | EC50 (HIV-2(ROD)) [µM] | IC50 (human lymphocyte CEM) [µM] | activity against FCV (FCV) | EC50 (FCV; FCV in FCK cells, read-out: EC50 FCV) [µM] | CC50 (FCK cells) [µM] | activity against VZV (VZV (wild-type strains)) | EC50 (VZV (wild-type strains); [4]) [µM] | EC50 (VZV (wild-type strains); [5]) [µM] | IC50 (murine leukemia L1210) [µM] | MTC (HEL) (HEL cells [1]; anti-VZV table) | IC50 [2] [µM] | CC50 (HEL cells [3]; anti-VZV table) [µM] | MTC (HEL) (HEL cells [1]; anti-CMV table) | EC50 (CMV; [6]) [µM] | EC50 (CMV; [7]) [µM] | CC50 (HEL cells [3]; anti-CMV table) [µM] | EC50 (VZV (wild-type strains); read-out: EC50 against VZV) [µM] | anti-CMV activity (CMV)
1 | CNC(=O)C1NC(=O)C2NC(=O)C(NC(=O)C3NC(=O)C(CC(N)=O)NC(=O)C(NC(=O)C(CC(C)C)N(C)C(=O)OC(C)(C)C)C(O)c4ccc(c(Cl)c4)Oc4cc3cc(c4O)Oc3ccc(cc3)C2O)c2ccc(O)c(c2)-c2c1cc(O)c(CN1CCN(Cc3ccc(-c4ccccc4)cc3)CC1)c2O (stereo not shown) [Compound 7] | 4 | 3.5 ± 0.7 | > 100 | pronounced activity | 3.6 | > 50 | pronounced activity | 1 | 0.87 | 84 ± 22 | ≧20 μM | > 100 | > 50 | – | – | – | – | – | –
2 | CCCCCCCCCC[N+](C)(C)CCCNC(=O)C1NC(=O)C2NC(=O)C(NC(=O)C3NC(=O)C4NC(=O)C(Cc5ccc(c(Cl)c5)Oc5cc3cc(c5O)Oc3ccc(cc3Cl)C2O)NC(=O)C(N)c2ccc(O)c(c2)Oc2cc(O)cc4c2)c2ccc(O)c(c2)-c2c1cc(O)c(CN1CC[N+](C)(CCCCCCCCCC)CC1)c2O (stereo not shown) [Compound 39] | – | 1.3 ± 0.21 | 14 ± 2 | – | – | – | – | 0.9 | 0.81 | 7.3 ± 0.3 | ≧5 μM | 14 ± 3 | 170 | ≧5 μM | > 2 | 4 | 170 | – | –
3 | CNC(CC(C)C)C(=O)NC1C(=O)NC(CC(N)=O)C(=O)NC2C(=O)NC3C(=O)NC(C(=O)NC(C(=O)O)c4cc(O)cc(O)c4-c4cc3ccc4O)C(O)c3ccc(c(Cl)c3)Oc3cc2cc(c3OC2OC(CO)C(O)C(O)C2OC2CC(C)(NCc3ccc(-c4ccc(Cl)cc4)cc3)C(O)C(C)O2)Oc2ccc(cc2Cl)C1O (stereo not shown) [Compound 59] | – | – | – | – | – | – | – | 0.87 | 0.89 | – | 5 to 20 µM | – | > 50 | 5 to 20 µM | > 5 | 16 | > 50 | 0.87 to 0.89 | anti-CMV activity
4 | CCCCCCCCCCNC1(C)CC(OC2C(Oc3c4cc5cc3Oc3ccc(cc3Cl)C(O)C(NC(=O)C(CC(C)C)NC)C(=O)NC(CC(N)=O)C(=O)NC5C(=O)NC3C(=O)NC(C(=O)NC(C(=O)O)c5cc(O)cc(O)c5-c5cc3ccc5O)C(OC3CC(C)(N)C(O)C(C)O3)c3ccc(cc3)O4)OC(CO)C(O)C2O)OC(C)C1O (stereo not shown) [Compound 68] | – | – | – | – | – | – | – | > 2 | 0.7 | – | 5 to 50 µM | – | > 200 | 5 to 50 µM | 20 | > 20 | > 200 | – | –
5 | O=C1NC2C(=O)NC3C(=O)NC4C(=O)NC(C(=O)NC(C(=O)O)c5cc(O)cc(O)c5-c5cc4ccc5O)C(O)c4ccc(c(Cl)c4)Oc4cc3cc(c4O)Oc3ccc(cc3Cl)CC1NC(=O)C(NCc1ccc(-c3ccccc3)cc1)c1ccc(O)c(c1)Oc1cc(O)cc2c1 (stereo not shown) [Compound 122] | – | – | – | – | – | – | – | 1 | 1 | – | 20 to 50 µM | – | > 50 | 20 to 50 µM | > 20 | – | > 50 | – | –
6 | NC1C(=O)NC2Cc3ccc(c(Cl)c3)Oc3cc4cc(c3O)Oc3ccc(cc3Cl)C(O)C3NC(=O)C(NC(=O)C4NC(=O)C(NC2=O)c2cc(O)cc(c2)Oc2cc1ccc2O)c1ccc(O)c(c1)-c1c(O)cc(O)cc1C(C(=O)N1CCN(Cc2ccc(C=Cc4ccccc4)cc2)CC1)NC3=O (stereo not shown) [Compound 127] | – | – | – | – | – | – | – | 0.7 | 0.3 | – | ≧5-20 μM | – | 44 | ≧5-20 μM | 10 | > 5 | 44 | – | –
